The values that follow come from US9006205B2, “Antisense oligonucleotides against neutral sphingomyelinase and neutral sphingomyelinase inhibitor GW4869 for degenerative neurological disorders” (Rush University Medical Center, priority 2011, dated 2015).

The subject of series [1] is primary human neurons. In words: LDH release from neurons in astrocyte-neuron trans-well. The format is cell-based. The procedure:
(§1) Primary human astrocytes were grown to confluency on inserts. After 24 h of stimulation by the combination of Aβ (1 μM) and IL-Iβ (10 ng/ml), inserts were washed thrice with HBSS and then placed onto the wells containing primary human neurons. Therefore, in this trans-well model, although neurons and astrocytes face each other, they are separable and the effect of soluble factors released from activated astrocytes on neurons can be studied allowing analysis of neuronal and glial populations separately.
The activity of lactate dehydrogenase (LDH) was measured using the direct spectrophotometric assay using an assay kit from Sigma.
(§2) Primary human neurons were incubated with antisense (ASO) and scrambled oligonucleotides (ScO) against N-SMase (A) and A-SMase (FIG. 2B). After 48 h, neurons were analyzed for protein expression of N-SMase and A-SMase. In FIG. 2C, primary human astrocytes seeded in inserts were stimulated by the combination of Aβ and IL-1β as described above. […] After 6 h of treatment with activated astrocytes, apoptotic events in neurons were detected by TUNEL. In FIG. 2D, TUNEL-positive cells were counted manually in four different images of each of three coverslips by three individuals blinded to the experiment. In FIG. 2E, after 18 h of stimulation, cell viability was examined by the metabolism of MTT and the release of LDH. […] Values obtained from the control group served as 100%, and data obtained in other groups were calculated as percent of control accordingly. […]
In FIGS. 3A-3E, primary human astrocytes seeded in inserts were stimulated by the combination of Aβ and IL-Iβ as described above. […] In FIG. 3A, after 1 h, activity of N-SMase was measured in total cell extracts of neurons as described above. […] Values obtained from the control group served as 100%, and data obtained in other groups were calculated as percent of control accordingly. […] Primary human neurons were treated with 25 μM DETA-NONOate (a NO donor) and at different time points of treatment, activities of N-SMase (FIG. 3D) and A-SMase (FIG. 3E) were monitored. ^ap<0.001 vs control (0 h).
For orientation: LDH leaks from cells whose membrane has failed.

Series [2] deals with T1, N-SMase (Homo sapiens, UniProt Q9NY59).
T1 construct: endogenous in cells; host or cells: primary human neurons
T1 sequence (Q9NY59 1-655): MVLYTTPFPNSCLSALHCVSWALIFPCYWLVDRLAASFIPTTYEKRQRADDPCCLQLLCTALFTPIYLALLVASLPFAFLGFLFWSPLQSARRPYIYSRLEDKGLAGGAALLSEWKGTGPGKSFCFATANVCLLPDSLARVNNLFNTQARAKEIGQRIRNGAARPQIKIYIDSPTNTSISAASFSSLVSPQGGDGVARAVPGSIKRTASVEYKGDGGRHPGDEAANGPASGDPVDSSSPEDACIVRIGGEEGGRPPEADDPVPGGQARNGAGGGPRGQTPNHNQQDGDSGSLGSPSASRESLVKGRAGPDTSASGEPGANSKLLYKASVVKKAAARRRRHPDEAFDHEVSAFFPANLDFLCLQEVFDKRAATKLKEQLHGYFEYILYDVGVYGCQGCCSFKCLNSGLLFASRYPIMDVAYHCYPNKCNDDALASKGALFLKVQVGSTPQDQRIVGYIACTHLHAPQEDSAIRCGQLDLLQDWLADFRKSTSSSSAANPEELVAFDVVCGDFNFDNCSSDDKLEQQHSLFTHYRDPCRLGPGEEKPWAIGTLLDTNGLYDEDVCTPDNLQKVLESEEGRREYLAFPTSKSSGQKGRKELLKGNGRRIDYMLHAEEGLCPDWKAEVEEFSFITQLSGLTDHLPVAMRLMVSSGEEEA
In words: Assay of N-SMase activity in primary human neurons. The format is cell-based. The procedure: (§3) Activities of SMase(s) were assayed as described by. Briefly, after treatment, the cells were washed with PBS, harvested in PBS, divided into two halves, and centrifuged. The fraction for N-SMase was resuspended in buffer A (100 mM Tris-HCl, pH 7.4, 0.1% Triton X-100, 1 mM EDTA, and protease inhibitors), and the cell suspension was sonicated and centrifuged at 500×g at 4° C. for 5 min. The supernatant was used as the enzyme source for N-SMase. The reaction mixture contained enzyme preparation in buffer A containing 5 nmol of [^14C] sphingomyelin, 5 nmol of phosphatidylserine, 5 mM dithiothreitol, and 5 mM MgC¾ in a final volume of 100 μl. Similarly, the fraction for A-SMase was resuspended in buffer B (100 mM sodium acetate, pH 5.0, 0.1% Triton X-100, and protease inhibitors). The cell suspension was sonicated and centrifuged. The supernatant was used as the source of A-SMase. The activity of A-SMase was measured in a 100-μl reaction mixture consisting of the enzyme preparation in buffer B and 5 nmol of [^14C] sphingomyelin. The enzyme reaction was initiated by the addition of 50 μl of substrate and stopped by the addition of 1.5 ml of chloroform:methanol (2:1, v/v) and 0.2 ml of water. After vortexing and phase separation, the aqueous phase was removed for counting.
In FIGS. 3A-3E, primary human astrocytes seeded in inserts were stimulated by the combination of Aβ and IL-Iβ as described above. After 24 h, media were removed and inserts were washed and placed on neurons that were pretreated with PTIO for 30 min. In FIG. 3A, after 1 h, activity of N-SMase was measured in total cell extracts of neurons as described above. After 18 h, neuronal viability was examined by the metabolism of MTT (FIG. 3B) and the release of LDH (FIG. 3C). Values obtained from the control group served as 100%, and data obtained in other groups were calculated as percent of control accordingly. Results are mean+S.D. of three different experiments. ^ap<0.001 vs control; ^bp<0.001 vs activated astrocytes. Primary human neurons were treated with 25 μM DETA-NONOate (a NO donor) and at different time points of treatment, activities of N-SMase (FIG. 3D) and A-SMase (FIG. 3E) were monitored. ^ap<0.001 vs control (0 h).

In series [3] the test system is primary human neurons. In words: MTT metabolism of neurons in astrocyte-neuron trans-well. The format is cell-based. On the procedure: as §1
Mitochondrial activity was measured with the 3-(4,5-dimethylthiazol-2-yl)-2,5-diphenyltetrazolium bromide (MTT) assay (Sigma). The cells were grown on 24-well culture plates with 500 μl of medium and treated with various reagents according to the experimental design. At the end of the treatment period, 300 μl of culture medium were removed from each well, and 20 μl of MTT solution (5 mg/ml) were added and incubated for 1 h.
as §2, with “experiment.” for “experiment. In FIG. 2E, after 18 h of stimulation, cell viability was examined by the metabolism of MTT and the release of LDH.”
In FIGS. 3A-3E, primary human astrocytes seeded in inserts were stimulated by the combination of Aβ and IL-Iβ as described above. […] In FIG. 3A, after 1 h, activity of N-SMase was measured in total cell extracts of neurons as described above. […] Values obtained from the control group served as 100%, and data obtained in other groups were calculated as percent of control accordingly.

The test system of series [4] is neurons (NeuN-positive cells). Put plainly: TUNEL/NeuN neuronal apoptosis in vivo in the cortex of Aβ-microinjected mice. As to conditions: 1 μg oligonucleotide 24 h before Aβ; 24 h after final microinjection.
Another series relates to A-SMase. Put plainly: A-SMase activity in vivo in the cortex after microinjection. Also noted: species or system C57/BL6 mice. As to conditions: pre-microinjection of 1 μg oligonucleotide 24 h before 1 μg fibrillar Aβ1-42. On the procedure:
as §3
(§4) Control mice received saline injection. At indicated time points, cortex was dissected out and divided into two halves—one half for measuring activities of N-SMase (FIG. 7B) and A-SMase (FIG. 7C) and the other for assaying ceramide (FIG. 7D). Control (saline—6 h) group served as 100%, and data from other groups were expressed as percentage of control. Results are mean+SD of five different mice (n=5). ^ap<0.05 vs saline—6 h.

The next series concerns iNOS, GFAP and CD11b. In words: Immunofluorescence of iNOS, GFAP and CD11b in the cortex of Aβ-microinjected mice. The following applies: 1 μg oligonucleotide 24 h before Aβ; at both 6 h and 24 h of microinjection. The format is in vivo, C57/BL6 mice. The procedure:
[…], mice were perfused with 4% paraformaldehyde and their brains were processed for immunohistochemical studies. For double labeling of GFAP with iNOS, sections (6 μm) were incubated with polyclonal anti-GFAP (GFAP: 1000 dilution; Calbiochem) and anti-iNOS (iNOS: 1000 dilution; Calbiochem) for 24 h at 4° C. After three washes in PBST (15 min each), slides were further incubated with Cy5 and Cy2 (Jackson ImmunoResearch Laboratories, Inc.) secondary antibodies for 2 h at room temperature. For negative controls, a set of tissue sections was incubated under similar conditions without the primary antibodies. The samples were mounted and observed under a Bio-Rad MRC1024ES confocal laser scanning microscope.
After 6 h of Aβ microinjection, mice were perfused and double immunofluorescence for GFAP (green) and iNOS (red) (FIG. 8A) and CD 11b (green) and iNOS (red) (FIG. 8B) was performed.

The test system of series [5] is N-SMase. In words: N-SMase activity in vivo in the cortex after microinjection. Also noted: species or system C57/BL6 mice. The following applies: pre-microinjection of 1 μg oligonucleotide 24 h before 1 μg fibrillar Aβ1-42. The procedure:
as §3, §4

The next series has as its system primary human astrocytes. In words: GFAP and iNOS double-labeling of primary human astrocytes stimulated with Aβ peptides. As to conditions: peptide stimulation for 24 h. The format is cell-based. The procedure: In FIG. 5A, primary astrocytes were stimulated with fibrillar Aβ1-42, oligomeric Aβ1-42 and reverse peptide Aβ42-1 for 24 h followed by double-labeling of GFAP and iNOS. In FIG. 5B, primary human astrocytes seeded in inserts were stimulated with a combination of I μM of oligomeric Aβ1-42 and 10 ng/ml of IL-Iβ in serum free media. […] After 6 h, neuronal apoptosis was monitored by TUNEL. In FIG. 5C, TUNEL-positive cells were counted manually in four different images of each of three coverslips by three individuals blinded to the experiment. Values obtained from the control group (1) served as 100%, and data obtained from other three groups i.e. the oligomeric Aβ-activated astrocytes (OAA) group (2), the ASO-OAA group (3), and the ScO-OAA group (4) was calculated as percent of control accordingly. Results are mean+S.D. of three different experiments. ^ap<0.001 vs control; ^bp<0.001 vs OAA.

The mark [6] stands for this setting: neurons pretreated with PTIO for 30 min, after 18 h.
Where [7] appears, read: neurons pretreated with oligonucleotide, 18 h of stimulation.

Regarding `CC1(C)N([O])C(c2ccccc2)=[N+]([O-])C1(C)C` [PTIO], in the series with primary human neurons [1] (setting [6]), the “ability of activated astrocytes to increase the release of LDH” value is on record as “reduced the ability”. The “ability of activated astrocytes to induce the activation of N-SMase” value at N-SMase [2] (neurons pretreated with PTIO for 30 min, measured after 1 h) is reported as “reduced the ability”. Besides, the “ability of activated astrocytes to decrease MTT metabolism” value in the series on primary human neurons [3] (setting [6]) is recorded as “reduced the ability”.
“5′-CACGCGTCCGACGCCGCACGA-3′ (DNA CACGCGTCCGACGCCGCACGA; chemistry not given here) [mN-SMase ScO, ScO against mouse N-SMase]”: in series [4], the “Aβ-induced apoptotic death in vivo in the cortex (TUNEL/NeuN)” value was “did not ameliorate”. Moreover, the “activity of A-SMase in fibrillar Aβ-microinjected cortex” value with A-SMase is “did not influence”. In addition, the “expression of iNOS, GFAP and CD11b in vivo in the cortex of Aβ-microinjected mice” value in the series with iNOS, GFAP and CD11b was “had no effect”.
In the case of “5′-CAGCGAGCCGGTCCACCAGCC-3′ (antisense CAGCGAGCCGGTCCACCAGCC; chemistry not given here) [mN-SMase ASO, ID; NO.: 16]”, the “Aβ-induced apoptotic death in vivo in the cortex (TUNEL/NeuN)” value in series [4] is “blocked”. Besides, the “activity of A-SMase in fibrillar Aβ-microinjected cortex” value in the series on A-SMase is “did not influence”. Besides, the “expression of iNOS, GFAP and CD11b in vivo in the cortex of Aβ-microinjected mice” value in the series on iNOS, GFAP and CD11b is “dramatically reduced”. Further, the “Aβ1-42-induced activation of N-SMase in vivo in the cortex” value with N-SMase [5] was “capable of suppressing”.
As to `NCCN(CCN)/[N+]([O-])=N/O` [DETA-NONOate], the “activation of N-SMase by NO donor alone” value on N-SMase [2] (primary human neurons, 25 μM, different time points) is given as “markedly induced”.
For the molecule “5′- CACGCGTCCGACGCCGCACGA -3′ (DNA, all phosphorothioate, methylation of C not given here) [ScO against N-SMase, ID; NO.: 13]”, in the series with primary human neurons [1] (setting [7]), the “LDH release from neurons” value was “showed no effect”. Besides, in the series on primary human neurons [3] (setting [7]), the “activated astroglia-mediated loss of MTT metabolism” value was “showed no effect”.
Turning to “oligomeric Aβ: Aβ1-42 prepared after incubation at 37° C. for 2 days”, the “astroglial iNOS protein and GFAP” value in the series on primary human astrocytes is “also induced iNOS and upregulated GFAP”.
